Biological target: T1, Serine/threonine-protein kinase ULK2 (Homo sapiens, UniProt Q8IYT8)
T1 sequence (Q8IYT8 whole entry): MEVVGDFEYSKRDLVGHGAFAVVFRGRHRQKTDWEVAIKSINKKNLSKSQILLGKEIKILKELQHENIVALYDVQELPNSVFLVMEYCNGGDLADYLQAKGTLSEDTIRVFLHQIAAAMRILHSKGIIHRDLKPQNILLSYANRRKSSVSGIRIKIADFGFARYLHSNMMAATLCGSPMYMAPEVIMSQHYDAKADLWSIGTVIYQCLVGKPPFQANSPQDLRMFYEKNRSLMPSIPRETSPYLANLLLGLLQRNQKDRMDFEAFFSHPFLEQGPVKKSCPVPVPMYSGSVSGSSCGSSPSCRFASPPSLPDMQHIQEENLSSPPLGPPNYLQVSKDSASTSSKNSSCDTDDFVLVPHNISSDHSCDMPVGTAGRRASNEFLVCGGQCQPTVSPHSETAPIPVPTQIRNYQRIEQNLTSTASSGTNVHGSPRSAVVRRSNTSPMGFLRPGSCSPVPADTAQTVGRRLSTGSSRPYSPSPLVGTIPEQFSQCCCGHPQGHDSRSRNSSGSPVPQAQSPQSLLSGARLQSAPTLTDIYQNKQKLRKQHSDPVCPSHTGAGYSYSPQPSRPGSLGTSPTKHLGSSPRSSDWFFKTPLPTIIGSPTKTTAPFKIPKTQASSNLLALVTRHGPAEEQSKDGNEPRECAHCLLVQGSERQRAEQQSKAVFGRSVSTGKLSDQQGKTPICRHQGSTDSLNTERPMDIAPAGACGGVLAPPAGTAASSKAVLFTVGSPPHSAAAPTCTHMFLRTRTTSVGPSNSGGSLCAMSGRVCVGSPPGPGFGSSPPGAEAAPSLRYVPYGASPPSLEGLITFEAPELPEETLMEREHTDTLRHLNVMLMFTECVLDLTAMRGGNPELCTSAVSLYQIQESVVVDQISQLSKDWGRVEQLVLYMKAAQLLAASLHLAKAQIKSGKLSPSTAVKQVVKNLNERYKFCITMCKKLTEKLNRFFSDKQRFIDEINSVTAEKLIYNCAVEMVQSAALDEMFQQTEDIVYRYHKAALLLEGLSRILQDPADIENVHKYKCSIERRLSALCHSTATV
Assay: Not found
Text: Not found

IC50: 325 nM
Compound: CCC(CC)NC(=O)c1cc(-c2cnn3cc(N4CCNCC4)cnc23)cs1 [US20250059194, Example Table 1.9]

Source: BindingDB's records for patent US20250059194 (Michigan State University, 2025)
